In US6486151B2, “N-oxides of heterocyclic esters, amides, thioesters, and ketones” (GPI NIL Holdings Inc., priority 1997, dated 2002):

How the values were obtained:
[1] = target: FKBP12 (Homo sapiens, UniProt P62942); assay: Ki test procedure: inhibition of peptidyl-prolyl isomerase (rotamase) activity, chymotrypsin-coupled assay; format: biochemical; conditions: FKBP, substrate N-succinyl-Ala-Ala-Pro-Phe-p-nitroanilide; read-out: Ki (apparent Ki, rotamase inhibition)
Source text: As discussed above, the compounds of the present invention have an affinity for the FK506 binding protein, particularly FKBP12. The inhibition of the prolyl peptidyl cis-trans isomerase activity of FKBP may be measured as an indicator of this affinity.
Inhibition of the peptidyl-prolyl isomerase (rotamase) activity of the inventive compounds can be evaluated by known methods described in the literature (Harding, et al., Nature, 1989, 341 :758-760; Holt et al. J. Am. Chem. Soc., 115:9923-91938). The cis-trans isomerization of an alanine-proline bond in a model substrate, N-succinyl-Ala-Ala-Pro-Phe-p-nitroanilide, is monitored spectrophotometrically in a chymotrypsin-coupled assay, which releases para-nitroanilide from the trans form of the substrate. The inhibition of this reaction caused by the addition of different concentrations of inhibitor is determined, and the data is analyzed as a change in first-order rate constant as a function of inhibitor concentration to yield the apparent Ki values. […]
The absorbance at 390 nm versus time is monitored for 90 seconds using a spectrophotometer and the rate constants are determined from the absorbance versus time data files. […]

[2] = Liver microsomal assay (model of first pass metabolism); format: in vitro ADME, mouse
Method: (§1) In studies to directly asses the rate of metabolism of N-oxides, a mouse liver microsomal assay was used as described below to model first pass metabolism.
Liver microsomes from various species were purchased from a commercial supplier. The microsomes are characterized prior to shipment. The reaction mixture contained microsomes, 5 μM MgCl2, 1 mM NADP, 4 mM glucose-6-phosphate (G-6-P), and 1 unit/4 mL glucose-6-phosphate dehydrogenase (G-6-P DH). The final microsomal protein concentration for all studies was 0.2 mg/mL. Incubations were carried out for 1 hour in a shaking water bath (37° C.). The reaction was terminated by removing an aliquot from the reaction mixture and placing it in a tube with an equal volume of acetonitrile and the bioanalytical internal standard. The results of these experiments are presented as compound half-lives (t1/2) in Table II.

[3] = system: rabbit liver esterase; assay: Esterase activity: degradation by purified rabbit liver esterase; format: in vitro ADME; conditions: for de-esterification by purified esterase (in words): purified esterification enzyme in vitro; for esterase degradation (rate of enzymatic degradation): purified rabbit liver esterase, 0.05 M Tris buffer pH 7.5, 2 hours
Method: as §1
Purified rabbit liver esterase was purchased from Sigma. Five (5) units of enzyme were placed in 2 mL of 0.05 M Tris buffer (pH 7.5). Incubations were performed for 2 hours. The reaction was terminated by removing an aliquot from the reaction mixture and placing it in a tube with an equal volume of acetonitrile and the bioanalytical internal standard. The results of these experiments are presented in Table II as rates of enzymatic degradation of the compounds.

[4] = system: MPTP lesioning of dopaminergic neurons in mice; assay: MPTP model of Parkinson's Disease: striatal TH innervation density; format: in vivo; conditions: MPTP 30 mg/kg i.p. 5 days, test compound 4 mg/kg s.c., FIG. 1
Method: FIG. 1 is a bar graph showing Protection of Striatal TH Innervation Density from MPTP-toxicity by Concurrent Drug Dosing.
MPTP lesioning of dopaminergic neurons in mice is used as an animal model of Parkinson's Disease. Four week old male CD1 white mice are dosed i.p. with 30 mg/kg of MPTP for 5 days. Test compounds (4 mg/kg), or vehicle, are administered s.c. along with the MPTP for 5 days, as well as for an additional five days following cessation of MPTP treatment. At 18 days following MPTP treatment, the animals are sacrificed and the striata dissected and perfusion-fixed. Immunostaining is performed on sagittal and coronal brain sections using anti-tyrosine hydroxylase […] to quantitative survival and recovery of dopaminergic neurons. In animals treated MPTP and vehicle, a substantial loss of functional dopaminergic terminals is observed as compared to non-lesioned animals. Lesioned animals receiving test compounds show a significant recovery of TH-stained dopaminergic neurons. This model presents quantitation for the recovery of TH-positive dopaminergic neurons in the striatum of animals receiving of animals receiving the compounds of the present invention. Data for representative control and lesioned animals not receiving the test drugs is also presented against the data from the animals receiving the compounds of the present invention. […]

[5] = system: chick dorsal root ganglia; assay: Chick dorsal root ganglion cultures and neurite growth; format: cell-based; conditions: Gallus gallus; chick embryo DRG explants, 48 hours after drug treatment; read-out: ED50 (neurite outgrowth)
Method: Dorsal root ganglia were dissected from chick embryos of ten day gestation. Whole ganglion explants were cultured on thin layer Matrigel-coated 12 well plates with Liebovitz L15 plus high glucose media supplemented with 2 mM glutamine and 10% fetal calf serum, and also containing 10 μM cytosine β-D arabinofuranoside (Ara C) at 37° C. in an environment containing 5% CO2. Twenty-four hours later, […] Forty-eight hours after drug treatment, the ganglia were visualized under phase contrast or Hoffman Modulation contrast with a Zeiss Axiovert inverted microscope. Photomicrographs of the explants were made, and neurite outgrowth was quantified. Neurites longer than the DRG diameter were counted as positive, with total number of neurites quantitated per each experimental condition. Three to four DRGs are cultured per well, and each treatment was performed in duplicate.

Sequence of FKBP12 (P62942 whole entry): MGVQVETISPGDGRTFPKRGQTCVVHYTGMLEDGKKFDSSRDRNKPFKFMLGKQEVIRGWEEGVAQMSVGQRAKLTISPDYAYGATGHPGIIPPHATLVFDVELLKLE

Compound	Ki [1] [nM]	half-life compared with parent compound (in words) ([2]; mouse liver microsomal assay)	t1/2 (compound half-life in microsomal assay) ([2]; mouse liver microsomes, 0.2 mg/mL protein, 37° C., 1 hour incubation) [min]	de-esterification by purified esterase (in words) [3]	esterase degradation (rate of enzymatic degradation) [3] [pmol/min/mg protein]	protection / recovery of striatal TH-positive dopaminergic innervation (in words) [4]	EC50 [5] [nM]	half-life ([2]; mouse liver microsomes, 0.2 mg/mL protein, 37° C., 1 hour incubation, read-out: t1/2 (compound half-life in microsomal assay)) [min]
CCC(C)(C)C(=O)C(=O)N1CCC[C@H]1C(=O)OCCCc1ccc[n+]([O-])c1 [Example 1, 3-(3-Pyridyl)-1-propyl (2S)-1-(3,3-Dimethyl-1,2-dioxopentyl) -2-pyrrolidinecarboxylate, N-oxide]	225	significantly longer half-life than the parent compound	42.8	limited de-esterification	367	more potent in this in vivo model of neurodegeneration	–	–
CCC(C)(C)C(=O)C(=O)N1CCC[C@H]1C(=O)OCCCc1cccnc1 [Parent, 3-(3-Pyridyl)-1-propyl (2S)-1-(3,3-Dimethyl-1,2-dioxopentyl)-2-pyrrolidinecarboxylate, reference compound]	–	–	–	significant degradation	7521	–	0.05	8.1
